Source: paper PMC9556824, “Design, synthesis and computational study of new benzofuran hybrids as dual PI3K/VEGFR2 inhibitors targeting cancer” (Scientific Reports, 2022)
Where “and” joins values, the source holds several entries; their conditions need not be identical. Identical values can stand only once. Like-named read-outs stand apart in the source and are kept apart here.

How the values were obtained:
[1] = tested on: VEGFR-2; settings: read-out: IC50 against VEGFR-2; cited from earlier work
[2] = tested on: MCF-7; design: method as in PMID 25086915; settings: read-out: IC50 against MCF-7; cited from earlier work
[3] = tested on: Hela; design: method as in PMID 25086915; settings: read-out: IC50 against Hela; cited from earlier work
[4] = tested on: Hepatocellular carcinoma (HePG2); test: Antitumor screening using MTT assay; type: cell-based, human; settings: Homo sapiens
Source text: (§3) Hepatocellular carcinoma (HePG2), mammary gland breast cancer (MCF-7), epithelioid carcinoma cervix cancer (Hela), and human prostate cancer were included on the panel (PC3). […] The cell lines were obtained from the American Type Culture Collection (ATCC) through VACSERA, a Cairo-based holding firm for biological goods and vaccines.
(§4) The panel consisted of hepatocellular carcinoma (HePG2), mammary gland breast cancer (MCF-7), epithelioid carcinoma cervix cancer (Hela) and human prostate cancer (PC3). Human lung fibroblast (WI38) was used to assay the cytotoxicity effect on normal cell. The cell lines were obtained from ATCC via Holding company for biological products and vaccines (VACSERA), Cairo, Egypt. The cytotoxic activity was defined as the concentration of the compound that causes 50% growth inhibition compared with the growth of untreated cells.

[5] = biological target: human VEGFR-2 (Homo sapiens, UniProt P35968); test: Human VEGFR-2 enzyme inhibition assay (ELISA)
Protocol: (§5) PI3Kα and VEGFR-2 activity were verified by enzyme-linked immunosorbent assay (ELISA) assay technique. […] Then, the mean absorbance of each group of standard and tested compounds was determined. The standard curve was drawn on log–log paper with the absorbance on the Y-axis and the standard concentration on the X-axis.

[6] = tested on: epithelioid carcinoma cervix cancer (Hela); test: Antitumor screening using MTT assay; settings: Homo sapiens, HeLa
Source text: as §3, §4

[7] = biological target: human PI3Kα (Homo sapiens, UniProt P42336); test: Human PI3Kα enzyme inhibition assay (ELISA)
Protocol: as §5

[8] = tested on: HePG2, MCF-7, Hela, PC3 cell lines; test: Antitumor screening using MTT assay, statements across several cell lines; type: cell-based, human; settings: Homo sapiens, PC-3; read-out: IC50 range against HePG and PC3 cell lines
[9] = tested on: mammary gland breast cancer (MCF-7); test: Antitumor screening using MTT assay; settings: Homo sapiens
Source text: as §3, §4

[10] = In vitro cytotoxicity against human normal cell line (MTT); type: cell-based; settings: human, WI38, read-out: Average of Relative viability of cells (%)
Source text: (§1) The anticancer agent's selectivity for cancer cells is a critical consideration for any researcher, as it can decrease the molecule's adverse effects on normal human cells.

[11] = tested on: human lung fibroblast (WI38); test: as above; type: cell-based; settings: Homo sapiens, WI-38, human normal cell line WI38; mean ± SD, n = 3
Source text: as §1

[12] = tested on: Hela cells; test: Cell cycle arrest analysis; type: cell-based, human
Protocol: So, compound 8 was assessed its activity on cell cycle distribution and induction of apoptosis in different phases of Hela cells.
(§2) Annexin V-FITC and PI apoptosis kit were used to detect apoptosis (eBioscience™, San Diego, CA, USA). On a six well plate, Mcf cells were plated at a density of 600,000 cells/ml. The cells were treated with compound 8 at […] after 24 h of incubation. The solvent control consisted of cells developed in medium containing an equivalent volume of DMSO. In accordance with the instructions supplied by the Annexin V-FITC and PI apoptosis kit, the cells were stained with an Annexin V-FITC conjugate and propidium iodide (PI) after 24 h. The percentage of apoptotic, necrotic, and alive cells was then calculated. By using a flow cytometer (NovoCyte, ACEA Biosciences Inc, San Diego, CA, US) and the NovoExpress 1.3.0 software (ACEA Biosciences Inc, San Diego, CA, US), the cells' released fluorescence was examined. Each point on the population plot ("dot plot") corresponds to a single event with a particular fluorescence signal in relation to the axes: Annexin V-FITC green fluorescence.
Researcher : Dr.Omar El-Khouly email : dr.kholy93@gmail.com mob. 01278084495
Assay : Cell Cycle Analysis
Kit used : ab139418_Propidium Iodide Flow Cytometry Kit/BD
Assay samples : Cell culture
code IC50 %G0-G1 %S %G2/M %Pre-G1 Comment
(also on this page, place not known: 0 20 40 60 % OE -G12 /Hela Cont. Hela DNA content %G0-G1 %S %G2/M %Pre-G1)
(1 picture or pasted object on this page, not shown here)

[13] = tested on: human prostate cancer (PC3); test: Antitumor screening using MTT assay; settings: Homo sapiens
Source text: as §3, §4

[14] = tested on: Hela cells; test: Detection of apoptosis (Annexin V-FITC/PI); type: cell-based, human
Protocol: In Hela cells, compound 8 induced an early apoptotic effect with 1.79% at 24 h. Also, the enhanced late apoptotic induction with 14.11% by 83-fold compared to the Hela control cell (0.17%). On other hand, necrotic effect in Hela at 24 h was induced by compounds 8 with 8.81% compared to the control cells (1.15%).
as §2

[15] = read-out: Average of Relative viability of cells (%)
[16] = MCF7, read-out: Average of Relative viability of cells (%)

human PI3Kα, sequence (P42336 whole entry): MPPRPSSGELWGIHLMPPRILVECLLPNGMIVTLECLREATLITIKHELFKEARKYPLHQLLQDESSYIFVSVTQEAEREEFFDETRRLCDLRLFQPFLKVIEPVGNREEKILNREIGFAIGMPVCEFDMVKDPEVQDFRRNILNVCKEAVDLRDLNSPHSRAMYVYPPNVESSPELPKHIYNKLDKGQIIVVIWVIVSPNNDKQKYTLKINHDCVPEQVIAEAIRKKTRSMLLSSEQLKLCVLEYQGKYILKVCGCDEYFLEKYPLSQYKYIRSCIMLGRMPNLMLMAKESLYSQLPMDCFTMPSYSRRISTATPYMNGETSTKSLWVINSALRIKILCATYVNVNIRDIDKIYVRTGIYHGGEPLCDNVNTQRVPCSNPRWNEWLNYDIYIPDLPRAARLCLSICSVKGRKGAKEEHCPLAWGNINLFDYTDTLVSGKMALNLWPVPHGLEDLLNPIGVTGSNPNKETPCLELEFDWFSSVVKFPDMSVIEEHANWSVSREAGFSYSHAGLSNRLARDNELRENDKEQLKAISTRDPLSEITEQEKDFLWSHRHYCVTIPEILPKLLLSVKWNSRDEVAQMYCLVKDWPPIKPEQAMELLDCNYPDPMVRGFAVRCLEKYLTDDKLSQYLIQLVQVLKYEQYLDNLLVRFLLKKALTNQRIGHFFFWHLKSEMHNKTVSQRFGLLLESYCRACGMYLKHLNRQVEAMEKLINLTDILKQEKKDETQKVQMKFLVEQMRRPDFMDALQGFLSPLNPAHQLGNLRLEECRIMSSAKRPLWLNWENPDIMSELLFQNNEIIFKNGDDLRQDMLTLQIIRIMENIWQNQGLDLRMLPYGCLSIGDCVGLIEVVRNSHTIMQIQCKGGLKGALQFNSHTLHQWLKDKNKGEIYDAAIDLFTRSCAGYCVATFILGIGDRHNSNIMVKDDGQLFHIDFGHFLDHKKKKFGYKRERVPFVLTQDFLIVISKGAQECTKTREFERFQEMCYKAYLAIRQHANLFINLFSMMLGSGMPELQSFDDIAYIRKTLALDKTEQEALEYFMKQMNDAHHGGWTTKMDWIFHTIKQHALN
human PI3Kα, sequence (P27986 whole entry partner): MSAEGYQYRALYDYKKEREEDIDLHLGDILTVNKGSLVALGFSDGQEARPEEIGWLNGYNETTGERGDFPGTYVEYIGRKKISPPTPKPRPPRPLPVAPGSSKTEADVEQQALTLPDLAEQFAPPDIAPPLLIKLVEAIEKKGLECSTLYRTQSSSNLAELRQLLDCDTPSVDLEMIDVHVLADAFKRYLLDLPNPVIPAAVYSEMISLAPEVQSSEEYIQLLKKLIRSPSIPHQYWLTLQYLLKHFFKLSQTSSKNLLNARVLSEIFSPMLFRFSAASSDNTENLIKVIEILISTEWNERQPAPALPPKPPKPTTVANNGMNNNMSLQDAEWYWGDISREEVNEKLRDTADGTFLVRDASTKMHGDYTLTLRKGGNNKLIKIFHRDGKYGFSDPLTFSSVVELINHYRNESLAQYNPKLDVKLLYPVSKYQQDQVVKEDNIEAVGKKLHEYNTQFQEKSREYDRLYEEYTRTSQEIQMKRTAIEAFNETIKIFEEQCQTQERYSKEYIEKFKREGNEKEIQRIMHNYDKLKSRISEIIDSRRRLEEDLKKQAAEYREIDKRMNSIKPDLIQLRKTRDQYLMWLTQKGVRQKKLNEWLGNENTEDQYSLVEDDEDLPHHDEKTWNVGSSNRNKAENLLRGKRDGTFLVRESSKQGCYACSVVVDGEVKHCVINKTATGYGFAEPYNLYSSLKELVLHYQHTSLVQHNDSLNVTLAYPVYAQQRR
human VEGFR-2, sequence (P35968 20-1356): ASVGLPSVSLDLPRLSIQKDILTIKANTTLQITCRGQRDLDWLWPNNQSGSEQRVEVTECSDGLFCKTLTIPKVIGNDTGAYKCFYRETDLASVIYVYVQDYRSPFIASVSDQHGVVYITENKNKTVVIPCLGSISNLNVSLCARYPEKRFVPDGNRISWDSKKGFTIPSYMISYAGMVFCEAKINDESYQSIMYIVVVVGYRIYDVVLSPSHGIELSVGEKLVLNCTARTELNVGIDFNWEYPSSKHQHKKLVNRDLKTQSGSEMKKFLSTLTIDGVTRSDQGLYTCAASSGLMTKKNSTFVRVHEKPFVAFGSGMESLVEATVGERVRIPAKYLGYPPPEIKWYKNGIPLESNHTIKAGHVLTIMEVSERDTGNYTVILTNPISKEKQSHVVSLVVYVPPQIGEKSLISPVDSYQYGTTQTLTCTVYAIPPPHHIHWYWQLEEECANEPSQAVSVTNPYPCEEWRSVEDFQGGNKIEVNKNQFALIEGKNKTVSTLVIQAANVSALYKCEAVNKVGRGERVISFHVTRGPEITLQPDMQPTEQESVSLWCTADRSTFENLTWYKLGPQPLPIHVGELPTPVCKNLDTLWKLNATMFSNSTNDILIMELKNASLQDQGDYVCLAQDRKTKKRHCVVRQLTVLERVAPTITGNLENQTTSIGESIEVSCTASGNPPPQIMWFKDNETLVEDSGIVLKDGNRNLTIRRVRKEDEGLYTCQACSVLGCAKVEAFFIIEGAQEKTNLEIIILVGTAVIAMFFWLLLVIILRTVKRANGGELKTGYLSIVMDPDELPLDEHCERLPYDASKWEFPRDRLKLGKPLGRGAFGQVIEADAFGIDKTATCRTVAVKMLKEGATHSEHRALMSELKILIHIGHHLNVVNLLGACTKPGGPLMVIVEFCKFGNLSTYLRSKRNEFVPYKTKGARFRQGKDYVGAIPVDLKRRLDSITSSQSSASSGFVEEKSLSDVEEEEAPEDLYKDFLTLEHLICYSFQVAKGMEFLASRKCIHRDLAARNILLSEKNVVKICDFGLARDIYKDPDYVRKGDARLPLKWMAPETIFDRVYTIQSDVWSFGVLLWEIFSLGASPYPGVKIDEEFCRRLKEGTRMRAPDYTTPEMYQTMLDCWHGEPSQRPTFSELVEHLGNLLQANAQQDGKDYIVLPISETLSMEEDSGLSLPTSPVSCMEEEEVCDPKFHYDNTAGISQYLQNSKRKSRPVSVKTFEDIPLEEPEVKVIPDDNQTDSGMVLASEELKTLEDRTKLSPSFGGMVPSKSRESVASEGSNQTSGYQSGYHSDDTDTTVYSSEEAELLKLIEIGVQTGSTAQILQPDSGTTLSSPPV

## COc1c(C(=O)/C=C/c2ccc([N+](=O)[O-])cc2)c(O)cc2occc12 [Compound V]
[1]
  IC50: 0.001 µM

## O=C(CN1CCN(c2nn3c(-c4ccccc4)nnc3c3ccccc23)CC1)Nc1ccc(F)cc1 [Compound VII]
[2]
  IC50: 3.4 µM
[3]
  IC50: 2 µM

## C/C(=N\NC(=S)Nc1ccc(Cl)cc1)c1cc2ccccc2o1 [Compound 8, (E)-2-(1-(benzofuran-2-yl)ethylidene)-N-(4-chlorophenyl)hydrazine-1-carbothioamide]
[4]; Conc. 1.56 µM, read-out: Average of Relative viability of cells (%)
  viability at 1.56 µM: 99.5%
[4]; Conc. 3.125 µM, read-out: Average of Relative viability of cells (%)
  viability at 3.125 µM: 81.4%
[4]; Conc. 6.25 µM, read-out: Average of Relative viability of cells (%)
  viability at 6.25 µM: 67.3%
[4]; Conc. 12.5 µM, read-out: Average of Relative viability of cells (%)
  viability at 12.5 µM: 24.9%
[4]; Conc. 25 µM, read-out: Average of Relative viability of cells (%)
  viability at 25 µM: 29.1%
[4]; Conc. 50 µM, read-out: Average of Relative viability of cells (%)
  viability at 50 µM: 20.8%
[4]; Conc. 100 µM, read-out: Average of Relative viability of cells (%)
  viability at 100 µM: 13.2%
[4]; mean ± SD, n = 3, read-out: In-vitro cytotoxicity IC50 (µM) HePG2
  IC50: 9.73 ± 0.7 µM
[5]; VEGFR2 IC50 ng/ml, supplement lab report
  IC50: 250 nM
[5]; VEGFR-2 enzymatic IC50 (nM), mean of triplicate
  IC50: 68 nM and 86 nM
[5]; conc 0.01 (unit not given)
  vegfr2 %inh: 28.7%
[5]; conc 0.1 (unit not given)
  vegfr2 %inh: 52.7%
[5]; conc 1 (unit not given)
  vegfr2 %inh: 75.3%
[5]; conc 10 (unit not given)
  vegfr2 %inh: 90.4%
[6]; [15]
  viability at 1.56 µM: 88.6%
  viability at 3.125 µM: 76.1%
  viability at 6.25 µM: 53.7%
  viability at 12.5 µM: 32.8%
  viability at 25 µM: 24.5%
  viability at 50 µM: 16%
  viability at 100 µM: 8.2%
[6]; read-out: In-vitro cytotoxicity IC50 (µM) Hela
  IC50: 7.94 ± 0.5 µM
other
  melting point: 207 to 209 °C
[7]; PI3K-α IC50 ng/ml, supplement lab report
  IC50: 6.43 nM
[7]; PI3Kα enzymatic IC50 (nM), mean of triplicate
  IC50: 2.21 ± 0.11 nM
[7]; conc 0.1 (unit not given)
  PI3K-α %inh: 22.1%
[7]; conc 1 (unit not given)
  PI3K-α %inh: 42.7%
[7]; conc 10 (unit not given)
  PI3K-α %inh: 67%
[7]; conc 100 (unit not given)
  PI3K-α %inh: 80.7%
[8]
  IC50: 11 to 17 µM
[9]; [16]
  viability at 1.56 µM: 99.1%
  viability at 3.125 µM: 79.8%
  viability at 6.25 µM: 65.7%
  viability at 12.5 µM: 42.9%
  viability at 25 µM: 28.3%
  viability at 50 µM: 21.2%
  viability at 100 µM: 13.7%
[9]; MCF7, read-out: In-vitro cytotoxicity IC50 (µM) MCF-7
  IC50: 11.6 ± 0.9 µM
[10]; WI38 human lung fibroblast cells (normal cell line), Conc. 3.125 µM
  viability at 3.125 µM: 100%
[10]; WI38 human lung fibroblast cells (normal cell line), Conc. 6.25 µM
  viability at 6.25 µM: 89.3%
[10]; WI38 human lung fibroblast cells (normal cell line), Conc. 12.5 µM
  viability at 12.5 µM: 75.6%
[10]; WI38 human lung fibroblast cells (normal cell line), Conc. 25 µM
  viability at 25 µM: 62.7%
[10]; WI38 human lung fibroblast cells (normal cell line), Conc. 50 µM
  viability at 50 µM: 48.2%
[10]; WI38 human lung fibroblast cells (normal cell line), Conc. 100 µM
  viability at 100 µM: 36.4%
[10]; WI38 normal lung fibroblast cells, Conc. 1.56 µM
  viability at 1.56 µM: 100%
[11]
  IC50: 48.2 ± 2.8 µM
[12]
  Cell cycle analysis comment: Pre-G1 apoptosis and cell growth arrest at G1/S phase
  Cell cycle distribution (%) %G0–G1: 47.06%
  Cell cycle distribution (%) %G2/M: 1.71%
[12]; 24 h
  Cell cycle distribution (%) %S: 51.23%
[12]; after 48 h exposure
  Cell cycle distribution (%) %Pre-G1: 24.71%
[12]; listed as OE-G12
  Cell cycle analysis comment: cell growth arrest@G1/S phase
[13]; [15]
  viability at 1.56 µM: 100%
  viability at 3.125 µM: 93.7%
  viability at 6.25 µM: 72.9%
  viability at 12.5 µM: 51.6%
  viability at 25 µM: 39.2%
  viability at 50 µM: 27.1%
  viability at 100 µM: 19.3%
[13]; read-out: In-vitro cytotoxicity IC50 (µM) PC3
  IC50: 17.5 ± 1.3 µM
[14]
  late apoptotic induction: 14.11%
[14]; 24 h
  early apoptotic effect: 1.79%
  necrotic effect: 8.81%
[14]; control 0.17%
  late apoptotic induction, fold compared to Hela control cell: 83 fold
